In the assay the target is PI3Kδ (Homo sapiens, UniProt O00329). Description: PI3Kδ inhibition, IC50 at 1 mM ATP. The class given is biochemical.
Sequence of PI3Kδ (O00329 whole entry): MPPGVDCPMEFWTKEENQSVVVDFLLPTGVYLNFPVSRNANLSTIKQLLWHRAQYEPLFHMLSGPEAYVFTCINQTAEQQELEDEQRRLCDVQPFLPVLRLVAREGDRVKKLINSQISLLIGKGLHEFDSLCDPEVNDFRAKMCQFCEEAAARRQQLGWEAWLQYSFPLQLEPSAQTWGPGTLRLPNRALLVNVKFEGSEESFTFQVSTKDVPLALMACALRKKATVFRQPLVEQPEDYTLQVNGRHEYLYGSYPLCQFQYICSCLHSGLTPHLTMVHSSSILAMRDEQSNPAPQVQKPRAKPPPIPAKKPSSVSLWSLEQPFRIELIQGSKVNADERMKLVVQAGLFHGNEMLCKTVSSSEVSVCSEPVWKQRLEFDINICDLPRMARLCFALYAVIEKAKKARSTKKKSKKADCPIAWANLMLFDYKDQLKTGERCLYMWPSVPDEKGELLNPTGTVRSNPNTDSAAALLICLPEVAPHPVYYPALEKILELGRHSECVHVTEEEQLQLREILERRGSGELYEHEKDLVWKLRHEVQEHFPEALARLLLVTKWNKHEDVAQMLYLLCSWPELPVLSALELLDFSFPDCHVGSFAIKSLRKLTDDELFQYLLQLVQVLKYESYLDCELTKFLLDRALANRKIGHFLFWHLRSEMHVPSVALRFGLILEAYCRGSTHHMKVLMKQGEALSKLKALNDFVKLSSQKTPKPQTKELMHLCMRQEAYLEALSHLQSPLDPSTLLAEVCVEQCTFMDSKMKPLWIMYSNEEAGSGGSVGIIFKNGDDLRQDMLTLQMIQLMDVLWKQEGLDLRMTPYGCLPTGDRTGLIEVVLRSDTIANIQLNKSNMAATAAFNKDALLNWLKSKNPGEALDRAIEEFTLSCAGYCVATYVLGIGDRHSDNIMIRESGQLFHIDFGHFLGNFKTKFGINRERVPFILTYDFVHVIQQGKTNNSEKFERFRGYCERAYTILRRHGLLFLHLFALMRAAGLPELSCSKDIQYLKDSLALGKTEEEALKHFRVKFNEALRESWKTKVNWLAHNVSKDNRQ
Sequence of PI3Kδ (P27986 whole entry partner): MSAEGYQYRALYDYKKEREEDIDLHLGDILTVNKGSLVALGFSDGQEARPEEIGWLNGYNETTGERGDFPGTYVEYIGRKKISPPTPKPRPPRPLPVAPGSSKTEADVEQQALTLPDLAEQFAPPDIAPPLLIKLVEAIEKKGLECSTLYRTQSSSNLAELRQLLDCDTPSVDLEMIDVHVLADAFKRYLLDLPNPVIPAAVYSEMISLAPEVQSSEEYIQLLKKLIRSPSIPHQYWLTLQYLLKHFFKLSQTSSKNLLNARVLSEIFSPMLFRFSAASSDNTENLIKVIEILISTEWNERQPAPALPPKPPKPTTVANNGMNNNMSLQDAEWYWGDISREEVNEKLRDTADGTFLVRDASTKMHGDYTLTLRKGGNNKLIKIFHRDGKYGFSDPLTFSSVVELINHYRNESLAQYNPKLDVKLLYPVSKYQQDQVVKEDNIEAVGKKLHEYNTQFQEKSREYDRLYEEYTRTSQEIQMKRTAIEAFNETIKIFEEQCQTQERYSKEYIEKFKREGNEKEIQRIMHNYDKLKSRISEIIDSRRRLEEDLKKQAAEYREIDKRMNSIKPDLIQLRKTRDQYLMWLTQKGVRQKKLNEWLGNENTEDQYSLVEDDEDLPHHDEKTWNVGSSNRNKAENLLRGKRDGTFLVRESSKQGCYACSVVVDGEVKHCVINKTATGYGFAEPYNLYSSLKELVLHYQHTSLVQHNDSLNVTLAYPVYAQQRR

What is called IC50 is the concentration at which inhibition is half-maximal. Low readings indicate inhibition by little substance, high ones a need for much substance. For the compound `CCOc1c([C@H](C)n2nc(C)c3c(N)ncnc32)cc(Cl)c(F)c1[C@@H]1CNC(=O)C1` [parsaclisib, (R)-4-(3-((S)-1-(4-amino-3-methyl-1H-pyrazolo[3,4-d]pyrimidin-1-yl)ethyl)-5-chloro-2-ethoxy-6-fluorophenyl) pyrrolidin-2-one], half-maximal inhibition (IC50) required 1 nM.

The values are drawn from patent publication US20260060987A1, “METHODS AND COMPOSITIONS FOR RADIOPROTECTION AND MITIGATION OF RADIATION-INDUCED INJURY USING KINASE INHIBITORS” (Incyte Corporation, priority 2024, published 2026).
